This assay can be described thus: Inhibition of human recombinant caspase-3 expressed in Saccharomyces cerevisiae CG379 assessed as growth stimulation after 2 days.

With `CC(C)[C@H](NC(=O)OCc1ccccc1)C(=O)N[C@H](C=CS(C)(=O)=O)CC(=O)O` [(S)-3-((S)-2-(benzyloxycarbonylamino)-3-methylbutanamido)-5-(methylsulfonyl)pent-4-enoic acid], the half-maximal inhibitory concentration (IC50) was 35.3 µM.
